# Reference: patent US20080015240A1, “Acid Salt of Benzimidazole Derivative and Crystal Thereof” (priority 2004, published 2008)
# Structures can show the parent of a compound that is named as a salt.
# Legend:
# [1] = solubility according to the General Rules of the Japanese Pharmacopoeia 14th Edition; assay type: physicochemical; conditions: for solubility in Solution 1: Solution 1 of the Japanese Pharmacopoeia; for solubility in Solution 1 / solubility in Solution 2: 20±5° C. within 30 minutes; for solubility in Solution 2: Solution 2 of the Japanese Pharmacopoeia; for solubility in Water: powder shaken 30 seconds every 5 minutes at 20±5° C. within 30 minutes
# Method: […]. In accordance with the General Rules of the Japanese Pharmacopoeia 14th Edition, solubility (μg/mL) herein refers to an amount of a substance dissolved in a solvent after the substance in powder is placed in the solvent and the sample is shaken strongly for 30 seconds every 5 minutes at 20±5° C. within 30 minutes.
# [2] = order in stability among crystal forms by solvent-mediated transformation of a mixture of crystals; assay type: physicochemical; conditions: order may change depending on the solvent and temperature
# Source text: The order in stability among the crystal forms of each acid salt can be examined by solvent-mediated transformation of a mixture of crystals, but the order may change depending on the solvent and temperature. […]. […] […].
Compound,solubility in Solution 1 ([1]; sulfate),solubility in Solution 2 ([1]; sulfate),solubility in Water ([1]; sulfate),relative stability of crystal form ([2]; sulfate),other results
"Cc1cccc2scc(Cn3c(SCCCC(=O)O)nc4ccccc43)c12 [Crystal-SF, 4-(1-((4-methylbenzothiophen-3-yl)methyl)benzimidazol-2-ylthio)butanoic acid sulfate]",7.6 µg/mL,74.0 µg/mL,0.1 µg/mL,close to that of crystal-SA,–
"Cc1cccc2scc(Cn3c(SCCCC(=O)O)nc4ccccc43)c12 [Crystal-SB, 4-(1-((4-methylbenzothiophen-3-yl)methyl)benzimidazol-2-ylthio)butanoic acid sulfate]",19.8 µg/mL,24.2 µg/mL,0.8 µg/mL,–,–
"Cc1cccc2scc(Cn3c(SCCCC(=O)O)nc4ccccc43)c12 [Crystal A, 4-(1-((4-methylbenzothiophen-3-yl)methyl)benzimidazol-2-ylthio)butanoic acid, reference compound]",–,–,–,–,solubility in Solution 1 [1]: 2.5 µg/mL; solubility in Solution 2 [1]: 1.9 µg/mL
"Cc1cccc2scc(Cn3c(SCCCC(=O)O)nc4ccccc43)c12 [Crystal-SC, 4-(1-((4-methylbenzothiophen-3-yl)methyl)benzimidazol-2-ylthio)butanoic acid sulfate]",10.6 µg/mL,72.4 µg/mL,0.1 µg/mL,more stable than the other four crystal forms,–
"Cc1cccc2scc(Cn3c(SCCCC(=O)O)nc4ccccc43)c12.Cl [Crystal-HB, 4-(1-((4-methylbenzothiophen-3-yl)methyl)benzimidazol-2-ylthio)butanoic acid hydrochloride]",–,–,–,–,relative stability of crystal form [2]: more stable than the other crystal forms

# More lines, main results first:
solubility in Solution 1 ([1]; sulfate),solubility in Solution 2 ([1]; sulfate),solubility in Water ([1]; sulfate),relative stability of crystal form ([2]; sulfate),Compound,other results
8.6 µg/mL,67.3 µg/mL,–,–,"Cc1cccc2scc(Cn3c(SCCCC(=O)O)nc4ccccc43)c12 [Crystal-SA, 4-(1-((4-methylbenzothiophen-3-yl)methyl)benzimidazol-2-ylthio)butanoic acid sulfate]",–
–,–,–,less stable than crystal-SF,"Cc1cccc2scc(Cn3c(SCCCC(=O)O)nc4ccccc43)c12 [Crystal-SG, 4-(1-((4-methylbenzothiophen-3-yl)methyl)benzimidazol-2-ylthio)butanoic acid sulfate]",–
